Converted amounts (≈) assume the structure as drawn. Read-outs that look alike come from different tables or passages of the source.

The source of these data is patent US8394792B2, “Heterocyclic derivatives” (C&C Research Laboratories, priority 2008, dated 2013).

The target in series [1] is T1, CYP2C9 (Homo sapiens, UniProt P11712).
For the next series, the system named is Cebus monkey. Kind of series: Test for uricosuric effect in Cebus monkey. Format: in vivo. Particulars: for Plasma uric acid level: 4 hours after administration.
The conditions of series [2]: cited from earlier work; for excretion rate in urine: until 72 hours after administration of benzbromarone.
The target of series [3] is T1, CYP2C9. Kind of series: biochemical.
In a further series the target is T2, hURAT1 (Homo sapiens, UniProt Q96S37).
T2 construct: expressed in transfected cells; host or cells: HEK293 (human kidney cell line), transient transfection with Fugene6
T2 sequence (Q96S37 1-553): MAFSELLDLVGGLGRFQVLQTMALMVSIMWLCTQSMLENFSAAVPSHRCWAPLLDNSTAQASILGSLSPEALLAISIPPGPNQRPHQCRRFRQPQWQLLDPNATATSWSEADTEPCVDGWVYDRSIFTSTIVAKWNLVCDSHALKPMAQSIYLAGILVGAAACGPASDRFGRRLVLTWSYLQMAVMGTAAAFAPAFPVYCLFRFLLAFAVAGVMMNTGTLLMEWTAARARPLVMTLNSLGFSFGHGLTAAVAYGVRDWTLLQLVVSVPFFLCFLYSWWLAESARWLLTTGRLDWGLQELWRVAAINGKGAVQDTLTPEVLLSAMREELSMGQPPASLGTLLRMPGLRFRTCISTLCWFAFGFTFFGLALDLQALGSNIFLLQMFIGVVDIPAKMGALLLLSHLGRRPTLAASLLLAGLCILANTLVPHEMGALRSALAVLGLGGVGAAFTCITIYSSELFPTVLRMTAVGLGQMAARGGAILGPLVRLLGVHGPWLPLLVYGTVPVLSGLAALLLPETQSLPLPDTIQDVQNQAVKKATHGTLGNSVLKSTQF
As to the kind of experiment: Test for inhibiting urate reuptake activity via hURAT1 (uric acid transport assay in hURAT1-overexpressed HEK293 cell line). Type of series: cell-based. The note with it: hURAT1-overexpressed HEK293 cells, [14C]-uric acid uptake, 100 μM uric acid.

Series [4] in a line: Test for solubility according to pH. Format: physicochemical. The note with it: 37° C. 2 hours; for solubility at 2 h: thermodynamic from solid.
Protocol: 2.0 g of sodium chloride was dissolved in 7.0 mL of hydrochloric acid and water to make the total volume of 1000 mL. This solution was colorless and clear. Its pH was about 1.2.
To 250 mL of 0.2 mol/L potassium dihydrogen phosphate solution, 118 mL of 0.2 mol/L sodium hydroxide solution and water were added to make the total volume of 1000 mL. This solution was colorless and clear. Its pH was about 6.8.
For the compounds of present invention prepared in the examples, the test samples were prepared in each of the first and second solutions with 2 mg/mL concentration. This test sample solution was agitated for 10 seconds, sonicated for 1 minute and heated at 37° C. for 2 hours. The heated test sample solution was filtered to remove undissolved compounds therein. From filtered solution, 100 μl of the completely dissolved solution was sampled and 100 μl of acetonitrile was added thereto to make test sample solution. For each analysis of test sample solution, the solubility was measured by using liquid chromatography.
Where [5] appears, read: oral 15 mg/kg, during 0~8 hours.
Setting [6] is: 2 tablets (50 mg/tablet) benzbromarone one time, healthy fasting adult.
[7] abbreviates: read-out: IC50 (μM) hURAT, level of uric acid reuptake inhibition.
Where [8] appears, read: first solution pH about 1.2, 2 mg/mL.
[9] abbreviates: second solution pH about 6.8, 2 mg/mL.
Where [10] appears, read: 37 °C, pH 1.2, simulated gastric fluid, first solution pH about 1.2, 2 mg/mL, read-out: Solubility (μg/mL) pH 1.2.
[11] abbreviates: 37 °C, pH 6.8, aqueous buffer, second solution pH about 6.8, 2 mg/mL, read-out: Solubility (μg/mL) pH 6.8.

T1 sequence (P11712 whole entry): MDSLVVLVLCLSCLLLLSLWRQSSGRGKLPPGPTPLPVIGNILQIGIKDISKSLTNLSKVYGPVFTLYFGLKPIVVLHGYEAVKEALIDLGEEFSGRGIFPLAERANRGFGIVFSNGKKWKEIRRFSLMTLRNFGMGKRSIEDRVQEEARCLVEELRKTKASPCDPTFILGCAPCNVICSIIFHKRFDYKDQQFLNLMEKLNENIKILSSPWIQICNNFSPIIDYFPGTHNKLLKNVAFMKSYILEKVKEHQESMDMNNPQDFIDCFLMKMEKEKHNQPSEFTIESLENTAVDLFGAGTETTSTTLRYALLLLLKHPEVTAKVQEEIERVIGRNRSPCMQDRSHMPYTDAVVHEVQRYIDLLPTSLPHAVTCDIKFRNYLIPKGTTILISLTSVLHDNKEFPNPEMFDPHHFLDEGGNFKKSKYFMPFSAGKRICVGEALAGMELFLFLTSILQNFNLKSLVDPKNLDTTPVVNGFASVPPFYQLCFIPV

Broadly, the IC50 is the concentration that gives 50% inhibition. On to `O=C(CN1C(=O)COc2ccncc21)c1cc(Br)c(O)c(Br)c1` [Compound 56], for which the IC50 on CYP2C9 [1] was over 20000 nM.
On to `CCc1oc2ccccc2c1C(=O)c1cc(Br)c(O)c(Br)c1` [Benzbromarone, reference compound], for which the “Plasma uric acid level” value in the series on Cebus monkey (oral 15 mg/kg) was 3.80 mg/dL. Moreover, the “Fractional excretion rate of uric acid (FEua)” value in the series with Cebus monkey (setting [5]) is on record as 20.0±10.5%. Moreover, in series [2] (setting [6]), the “area under the curve (AUC)” value is 15900 ± 3300 ng·h/mL, the half-life of drug is 5.4 ± 1.9 h and the “time of maximum drug concentration in blood (Tmax)” value was 2.7 ± 1.0 h. Also, in series [2], the “excretion rate in urine” value is listed as “not detected”.
Consider `Br.O=C(c1cc(Br)c(O)c(Br)c1)N1CCOc2ccncc21` [Compound 3, (3,5-dibromo-4-hydroxy-phenyl)-(2,3-dihydro-pyrido[4,3-b][1,4]oxazin-4-yl)-methanone bromic acid salt], for which the “enhanced uricosuric activity compared to the compound disclosed in WO2006/057460” value in the series on Cebus monkey (comparison test) came out at 180%. Also, the IC50 at CYP2C9 [3] was 24500 nM; at hURAT1 (IC50 (μM) hURAT, level of uric acid reuptake inhibition), 0.0165 µM. The solubility at 2 h in series [4] (pH 1.2, simulated gastric fluid, first solution pH about 1.2, 2 mg/mL, read-out: Solubility (μg/mL) pH 1.2) was 1420 µg/mL; in series [4] (pH 6.8, aqueous buffer, second solution pH about 6.8, 2 mg/mL, read-out: Solubility (μg/mL) pH 6.8), 886 µg/mL.
In the case of `CCc1oc2cc(O)ccc2c1C(=O)c1cc(Br)c(O)c(Br)c1` [6-hydroxy benzbromarone], in series [2] (setting [6]), the half-life of drug was 18.0 ± 2.9 h, the “maximum concentration of drug (Cmax)” value is 1700 ± 400 ng/mL and the “time of maximum drug concentration in blood (Tmax)” value is 4.8 ± 1.3 h. Further, the “excretion rate in urine” value in series [2] is 1.2 % of the administered amount.
Take `O=C(c1cc(Cl)c(O)c(Cl)c1)N1CCOc2cnccc21` [Compound 41, (3,5-dichloro-4-hydroxy-phenyl)-(2,3-dihydro-pyrido[3,4-b][1,4]oxazin-1-yl)-methanone]: the IC50 was over 20000 nM against CYP2C9 [3] and 0.376 µM on hURAT1 (setting [7]). The “Solubility (μg/mL) pH 1.2” value in series [4] (setting [8]) is 808.87 μg/mL. Moreover, the “Solubility (μg/mL) pH 6.8” value in series [4] (setting [9]) is 156.54 μg/mL.
As to `O=S(=O)(c1cc(Br)c(O)c(Br)c1)N1CCOc2ccncc21` [Compound 35-2, 2,6-dibromo-4-(2,3-dihydro-pyrido[4,3-b][1,4]oxazin-4-sulfonyl)-phenol], the IC50 is over 20000 nM at CYP2C9 [3] and 0.277 µM at hURAT1 (setting [7]). Also, the results for the solubility at 2 h in series [4] (setting [10]) and in series [4] (setting [11]) were 1460 µg/mL (≈ 3240 µM) and 234 µg/mL (≈ 519 µM), respectively.
With `O=C(c1ccc(O)c(C(F)(F)F)c1)N1CCOc2ccncc21` [Compound 12, (2,3-dihydro-pyrido[4,3-b][1,4]oxazin-4-yl)-(4-hydroxy-3-trifluoromethyl-phenyl)-methanone], the IC50 at CYP2C9 [3] is over 60000 nM; at hURAT1 (setting [7]), 0.0408 µM. Besides, the solubility at 2 h in series [4] (setting [10]) is 1880 µg/mL (≈ 5800 µM); in series [4] (setting [11]) it was 132 µg/mL (≈ 407 µM).
Take `O=C(Cc1cc(Br)c(O)c(Br)c1)N1CCOc2ccncc21` [Compound 42, 2-(3,5-dibromo-4-hydroxy-phenyl)-1-(2,3-dihydro-pyrido[4,3-b][1,4]oxazin-4-yl)-ethanone]: the IC50 on CYP2C9 [3] turned out to be 18400 nM; at hURAT1 (setting [7]), 0.2 µM. For the same compound, the solubility at 2 h in series [4] (setting [10]) was 1310 µg/mL (≈ 3060 µM); in series [4] (setting [11]), 143 µg/mL (≈ 333 µM).
On to `O=C(c1cc(Br)c(O)c(Br)c1)N1CCOc2ccncc21` [Compound 4, (3,5-dibromo-4-hydroxy-phenyl)-(2,3-dihydro-pyrido[4,3-b][1,4]oxazin-4-yl)-methanone], for which, in the series on Cebus monkey (15 mg/kg, during 0~8 hours), the “enhanced uricosuric effect compared with Benzbromarone” value is on record as 160%. Besides, the “Plasma uric acid level” value in the series with Cebus monkey (oral 3.75 mg/kg) was found to be 3.88 mg/dL; in the series on Cebus monkey (oral 7.5 mg/kg), 3.66 mg/dL; in the series on Cebus monkey (oral 15 mg/kg), 3.40 mg/dL. The “Fractional excretion rate of uric acid (FEua)” value was found to be 24.1±13.3% in the series on Cebus monkey (oral 3.75 mg/kg, during 0~8 hours); 31.6±13.3% in the series with Cebus monkey (oral 7.5 mg/kg, during 0~8 hours); 33.2±19.8% in the series on Cebus monkey (setting [5]). Moreover, the results for the IC50 against CYP2C9 [3] and on hURAT1 (setting [7]) were 24300 nM and 0.023 µM, respectively. For the same compound, the “Solubility (μg/mL) pH 1.2” value in series [4] (setting [8]) is given as 1927 μg/mL. The “Solubility (μg/mL) pH 6.8” value in series [4] (setting [9]) is recorded as 970 μg/mL.
Regarding `COC(=O)COc1c(Br)cc(C(=O)N2CCOc3ccncc32)cc1Br` [Compound 24, (2,6-dibromo-4-(2,3-dihydro-pyrido[4,3-b][1,4]oxazin-4-carbonyl)-phenoxy]-acetic acid methyl ester], the results for the IC50 at CYP2C9 [3] and on hURAT1 (setting [7]) were over 20000 nM and 0.363 µM, respectively. The solubility at 2 h in series [4] (setting [10]) is 1250 µg/mL (≈ 2580 µM); in series [4] (setting [11]) it was 134 µg/mL (≈ 275 µM).
